Experimental data as given in patent US20140255432A1, “SILVESTROL, SILVESTROL ANALOGS AND USES THEREOF” (priority 2011, published 2014).

Experiments:
interleukin-6 = experiment: Real-time RT-PCR for NF-κB targets in LCL; format: cell-based, human; conditions: 10 nM in LCL (FIG. 45)
Excerpt: FIG. 41 presents data regarding NK cytotoxicity of K562 cells. […] FIG. 42 presents data regarding the cytotoxicity of LCLs pretreated with BZLF 1. […] BZLF1 antigen pulsed LCLs promoted enhanced killing in untreated and silvestrol-treated CTLs. FIG. 43 presents data relating to CD4 IFNgamma release with LCL pretreated with BZLF1. […] FIG. 44 presents data relating to CD4 IFNgamma release with LCL pretreated with BZLF 1. […] FIG. 45 presents data relating to interleukin-6 induction by silvestrol. […] FIG. 46 presents data relating to a change in LMP-1 expression following silvestrol treatment. […] Three cell lines were examined on days 1, 3, and 5 following treatment. FIG. 47 presents data relating to a change in EBNA1 expression following silvestrol treatment. Three cell lines were examined on days 1, 3, and 5 following treatment.

[1] = test system: immune effector subsets (CD3+/CD4+, CD3+/CD8+, CD3-/CD56+); experiment: Irradiated LCL / autologous PBMC co-cultures, flow cytometry; format: cell-based, human; conditions: 14 days
Description: Lymphoblastoid cell lines (LCL) were derived in vivo by engrafting severe combined immune-deficient (SCID) mice (Taconic, Hudson N.Y.) with human peripheral blood mononuclear cells (PBMC) from a healthy EBV-positive donor as described (Rowe 1991; Baiocchi 1994). Co-cultures (Cocx) were created by mixing 5×10^4 LCL (either non-irradiated or irradiated with 14000 rad) per well with equal numbers of autologous PBMC in 96-well plates. Cultures were grown in the presence of 10 U/mL IL-2 and were given a single dose of silvestrol and cultured for 10-14 days.
Cells from irradiated or non-irradiated co-cultures were co-stained with LIVE/DEAD cell stain (Invitrogen, Grand Island, N.Y.) and hu-CD3-APC and either hu-CD4-PE, hu-CD-8-PE, hu-CD19-PE (BD Biosciences, San Diego, Calif.), or hu-CD56-PE (Beckman Coulter, Brea, Calif.). Live events were gathered by gating on cells negative for the LIVE/DEAD stain on an FC500 cytometer (Beckman Coulter). Cell viability was also measured by flow cytometry at 24, 72, and 120 hr using annexin-V-FITC and propidium iodide (PI) according to the manufacturer's instructions (BD Biosciences).
To explore the immune modulatory activity of silvestrol in EBV-LPD, in vitro co-cultures (CoCx) were used. These cultures were created by lethally irradiating LCL lines and mixing them at a ratio of 1:1 with PBMC from the same healthy donor from which the LCL was derived. The PBMC are activated and expand in response to the antigenic stimuli from the EBV-infected LCL (Rowe 1991; Baiocchi 1994; Mosier 1995). CoCx created using three LCL and their respective autologous PBMC were incubated in the presence of 10 U/mL IL-2 and treated with 0 (vehicle only), 2, 5, or 10 nM silvestrol for 14 days. Flow cytometric analysis was conducted. Cells were gated on Live events were gathered by gating on cells negative for the LIVE/DEAD stain. Data are expressed as percentage of viable population, relative to the vehicle CoCx condition, for total cells, CD3^+/CD4^+, CD3^+/C8^+, and CD3^−CD56^+ cells. Results shown are the averages from three individual CoCx. […] As the irradiated LCL were absent by this time, silvestrol allowed for expansion of the normal effector population following LCL exposure.

EBV-LPD = experiment: hu-PBL-SCID model of EBV-LPD; format: in vivo, SCID mice
Description: Six week-old female SCID mice (n=28) received anti-asialo antisera prior to engraftment to deplete murine NK cells. Mice were engrafted intraperitoneally with 5×10^7 peripheral blood mononuclear cells (PBMCs) obtained from EBV-positive, healthy donor. Untreated mice in this model develop lethal disseminated (human) lymphoma; median survival varies by PBMC donor for that experiment. Two weeks post-engraftment, treatments were initiated with either vehicle (30% HBPCD) or vehicle+silvestrol (1.5 mg/kg every 48 hrs; n=14 each). 4 and 8 weeks post-engraftment, 2 mice from each group were sacrificed for examination and blood was drawn from all mice to assess human IgG levels (FIG. 23). The remainder of mice (n=10 each) were followed for survival. Survival is defined as absence of IACUC-approved euthanasia criteria (in this model, typically this is weight loss >20%, together with labored breathing and cessation of grooming).
The Hu-PBL-SCID mouse model has been described (Mosier 1992). Human PBMCs were obtained from a healthy EBV seropositive donor. 5×10^7 cells were injected intraperitoneally (IP) into 6 week-old female SCID mice (Taconic) that were NK cell-depleted by pretreatment with anti-asialo (GM1) (Wako Pure Chemical Industries, Richmond, Va.). Engraftment was confirmed by hu-IgG ELISA from serum as described (Baiocchi 1994). Silvestrol treatment began two weeks post-engraftment.
The hu-PBL SCID model has been used to study the effect of compounds on spontaneously derived EBV-driven lymphomas (Fuzzati-Armentero 1998). PBMC from a healthy EBV-positive donor were injected into a group of SCID mice that had been pretreated with anti-asialo (GM1) to deplete murine NK cells. Mice were randomized (n=14/group) and treatment with 1.5 mg/kg silvestrol or vehicle control every 48 hr began two weeks after engraftment. Two weeks after treatment began (four weeks post-engraftment), an ELISA was performed to evaluate human IgG. […] At 4 and 8 weeks post-engraftment, flow cytometry analysis was performed on spleen cells from two mice in each group. […] Spleens were also obtained from mice as the disease progressed and euthanasia criteria were met. […] During the 140-day experiment, the health of the mice was tracked by body weight. Weights of all mice were checked twice weekly.

[2] = 1.5 mg/kg every 48 hr, 140-day experiment

COC(=O)[C@H]1[C@@H](O)[C@@]2(O)c3c(OC)cc(O[C@@H]4O[C@@H]([C@H](O)CO)CO[C@H]4OC)cc3O[C@@]2(c2ccc(OC)cc2)[C@@H]1c1ccccc1 [silvestrol]
interleukin-6 expression (interleukin-6): induced | total number of cells expanded in CoCx ([1]; 10 nM, 10 U/mL IL-2): lower than in the vehicle controls | CD4+ T helper cell population relative to untreated CoCx ([1]; 2, 5, 10 nM): mild decrease | CD8+ cytotoxic T cell population relative to untreated CoCx ([1]; 2, 5, 10 nM): mild decrease | CD56+ natural killer cell population relative to untreated CoCx ([1]; 2, 5, 10 nM): relative increase | signs of disease at the end of the study (flow cytometry of spleen cells) (EBV-LPD; 1.5 mg/kg every 48 hr): no signs of disease | engraftment of human PBMCs (human immunoglobulin production) (EBV-LPD; 1.5 mg/kg every 48 hr (FIG. 23)): did not affect engraftment | EBV-LPD infiltration of the spleen (flow cytometry) (EBV-LPD; 1.5 mg/kg every 48 hr, 4 and 8 weeks post-engraftment): no tumor burden | body weight compared to vehicle-treated mice (EBV-LPD; [2]): gain weight at a faster pace | ill effects from long-term treatment (EBV-LPD; [2]): did not show observable ill effects | mean spleen weight (EBV-LPD; 1.5 mg/kg every 48 hr, after completion of the experiment at day 140): 72.9 mg | production of human IgG by xenografted B-lymphocytes (EBV-LPD; 1.5 mg/kg every 48 hr, four weeks post-engraftment): did not affect | mice alive at day 140 (overall survival) (EBV-LPD; 1.5 mg/kg every 48 hr, p<0.001 vs. vehicle): 7/7
